For orientation: IC50 means the midpoint of a concentration-inhibition curve. As a reminder, the EC50 is the concentration that produces a half-maximal response. Usually AC50 stands for the concentration at which the activity in the assay is half-maximal.

The values below come from ChEMBL document CHEMBL1201862, “PubChem BioAssay data set” (2004).

Calls of active or inactive are those of the source.

Experiment [1] has as its target T1, Nuclear receptor subfamily 0 group B member 1 (Homo sapiens, UniProt P51843).
T1 sequence (P51843 whole entry): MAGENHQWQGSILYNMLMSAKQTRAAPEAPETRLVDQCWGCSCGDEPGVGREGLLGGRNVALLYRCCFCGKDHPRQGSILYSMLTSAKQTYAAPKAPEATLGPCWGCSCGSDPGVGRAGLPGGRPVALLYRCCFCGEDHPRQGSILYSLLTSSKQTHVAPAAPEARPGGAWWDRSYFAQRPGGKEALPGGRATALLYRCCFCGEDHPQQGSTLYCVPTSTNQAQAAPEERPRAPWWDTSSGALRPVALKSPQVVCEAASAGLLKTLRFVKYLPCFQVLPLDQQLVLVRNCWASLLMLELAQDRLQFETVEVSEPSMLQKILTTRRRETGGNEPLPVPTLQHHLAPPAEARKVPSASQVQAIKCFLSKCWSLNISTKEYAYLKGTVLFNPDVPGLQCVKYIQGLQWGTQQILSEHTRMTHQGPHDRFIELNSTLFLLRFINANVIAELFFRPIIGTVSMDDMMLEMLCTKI
Kind of experiment: Luminescence-based cell-based high throughput dose response assay for inhibitors of the orphan nuclear receptor subfamily 0, group B, member 1 (DAX1; NR0B1). [Related pubchem assays (depositor defined):AID504766, AID504790]. In kind it is functional.

The test system of experiment [2] is HEK293. Kind of experiment: cells. Type of experiment: functional, cell-based. Conditions: Homo sapiens.
Experiment [3] deals with Beta-galactosidase (Escherichia coli, UniProt Q8VNN2). The experiment is described as follows: PubChem AID 485352. In kind it is functional.
For experiment [4], the target named is T2, Type-1 angiotensin II receptor (Homo sapiens, UniProt P30556).
T2 sequence (P30556 whole entry): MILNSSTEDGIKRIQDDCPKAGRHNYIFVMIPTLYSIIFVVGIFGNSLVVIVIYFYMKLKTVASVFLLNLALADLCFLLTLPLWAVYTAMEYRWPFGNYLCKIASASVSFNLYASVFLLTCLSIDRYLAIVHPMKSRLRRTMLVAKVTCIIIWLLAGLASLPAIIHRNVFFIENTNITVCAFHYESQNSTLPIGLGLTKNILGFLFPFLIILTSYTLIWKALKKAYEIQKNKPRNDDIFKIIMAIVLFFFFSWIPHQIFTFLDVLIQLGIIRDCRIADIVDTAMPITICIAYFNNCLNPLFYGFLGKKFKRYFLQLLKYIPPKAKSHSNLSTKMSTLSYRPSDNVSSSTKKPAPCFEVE
Kind of experiment: AT1 receptor antagonists, dose response, selectivity assay for APJ receptor antagonist project, cell-based, uHTS hits (AID 463214).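 Also: antagonist potency against angiotensin II stimulated AT1 response.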 In kind it is functional.

Experiment [5] concerns the target Genome polyprotein (dengue virus type 2, UniProt P29990). The experiment is described as follows: Dengue-2 NS5 methyltransferase inhibitors, primary screen, biochemical, confirmation dose response (AID 588689). In kind it is functional.
The target in experiment [6] is Cysteine protease ATG4B (Homo sapiens, UniProt Q9Y4P1). Type of experiment: functional.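 Also: Fluorescence-based dose-response confirmation assay measuring inhibition of ATG4B activity.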
For experiment [7], the target named is T3, Short transient receptor potential channel 4 (Mus musculus, UniProt Q9QUQ5).
T3 sequence (Q9QUQ5 whole entry): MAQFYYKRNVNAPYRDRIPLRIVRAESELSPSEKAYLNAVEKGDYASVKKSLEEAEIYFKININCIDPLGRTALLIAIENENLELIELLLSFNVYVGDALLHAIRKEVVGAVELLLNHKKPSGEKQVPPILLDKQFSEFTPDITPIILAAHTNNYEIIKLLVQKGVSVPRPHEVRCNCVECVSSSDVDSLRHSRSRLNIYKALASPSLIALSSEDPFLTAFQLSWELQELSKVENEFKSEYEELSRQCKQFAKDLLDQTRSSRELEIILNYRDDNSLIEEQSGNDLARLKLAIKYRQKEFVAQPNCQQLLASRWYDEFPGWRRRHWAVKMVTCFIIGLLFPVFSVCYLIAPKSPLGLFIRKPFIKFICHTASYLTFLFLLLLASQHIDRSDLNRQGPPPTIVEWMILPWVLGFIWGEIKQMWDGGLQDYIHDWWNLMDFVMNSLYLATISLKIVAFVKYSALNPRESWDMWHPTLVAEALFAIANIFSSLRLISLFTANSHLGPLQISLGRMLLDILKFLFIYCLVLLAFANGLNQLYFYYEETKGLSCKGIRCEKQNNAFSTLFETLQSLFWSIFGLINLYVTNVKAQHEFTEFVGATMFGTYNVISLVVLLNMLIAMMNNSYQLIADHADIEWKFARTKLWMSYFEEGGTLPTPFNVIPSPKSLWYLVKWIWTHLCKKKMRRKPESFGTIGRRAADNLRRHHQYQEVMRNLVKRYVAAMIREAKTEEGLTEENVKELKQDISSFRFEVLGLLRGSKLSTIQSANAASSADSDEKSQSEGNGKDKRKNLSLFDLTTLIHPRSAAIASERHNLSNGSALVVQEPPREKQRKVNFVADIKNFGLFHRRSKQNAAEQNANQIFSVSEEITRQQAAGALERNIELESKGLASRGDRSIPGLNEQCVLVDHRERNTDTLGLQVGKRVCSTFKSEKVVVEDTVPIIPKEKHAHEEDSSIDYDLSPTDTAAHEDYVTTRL
Kind of experiment: mouse TRPC4 channel inhibitors, dose response, cell-based, HEK293 TRPC4/mu-opioid, Fluo-4 calcium (AID 434942).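 Also: potency of inhibitors blocking the TRPC4 calcium response.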 In kind it is functional.

Experiment [8] concerns the target Phospholipase A2 (Homo sapiens, UniProt P04054). In kind it is functional.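 Also: confirmatory dose-response counterscreen on phospholipase A2, testing hits that came from an ultra-high-throughput screen for ATG4B inhibitors.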
Experiment [9] addresses T4, Caspase-3 (Homo sapiens, UniProt P42574).
T4 sequence (P42574 whole entry): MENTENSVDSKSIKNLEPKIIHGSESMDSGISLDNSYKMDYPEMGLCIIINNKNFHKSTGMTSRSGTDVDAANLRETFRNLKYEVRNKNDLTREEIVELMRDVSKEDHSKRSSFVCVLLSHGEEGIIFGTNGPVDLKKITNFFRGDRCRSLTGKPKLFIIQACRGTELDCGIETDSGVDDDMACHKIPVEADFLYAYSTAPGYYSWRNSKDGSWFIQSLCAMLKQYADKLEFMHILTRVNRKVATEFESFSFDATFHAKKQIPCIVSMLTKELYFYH
The experiment is described as follows: SAR Analysis of small molecule inhibitors of Sentrin-specific proteases (SENPs) using a Caspase-3 Selectivity assay. [Related pubchem assays (depositor defined):AID2540, AID2599, AID434973, AID489001]. In kind it is functional.

In experiment [10] the target is T5, Sentrin-specific protease 8 (Homo sapiens, UniProt Q96LD8).
T5 sequence (Q96LD8 whole entry): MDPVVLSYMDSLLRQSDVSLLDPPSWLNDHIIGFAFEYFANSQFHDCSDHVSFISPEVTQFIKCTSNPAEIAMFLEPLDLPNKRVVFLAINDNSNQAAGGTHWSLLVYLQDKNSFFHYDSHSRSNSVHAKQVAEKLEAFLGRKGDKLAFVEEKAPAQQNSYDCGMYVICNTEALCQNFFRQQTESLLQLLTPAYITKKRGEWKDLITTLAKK
The experiment is described as follows: SENP8 protease inhibitors, SAR follow-up, biochemical, luminescence (AID 504501). Type of experiment: functional.

Experiment [11] concerns the target T6, Sentrin-specific protease 7 (Homo sapiens, UniProt Q9BQF6).
T6 sequence (Q9BQF6 whole entry): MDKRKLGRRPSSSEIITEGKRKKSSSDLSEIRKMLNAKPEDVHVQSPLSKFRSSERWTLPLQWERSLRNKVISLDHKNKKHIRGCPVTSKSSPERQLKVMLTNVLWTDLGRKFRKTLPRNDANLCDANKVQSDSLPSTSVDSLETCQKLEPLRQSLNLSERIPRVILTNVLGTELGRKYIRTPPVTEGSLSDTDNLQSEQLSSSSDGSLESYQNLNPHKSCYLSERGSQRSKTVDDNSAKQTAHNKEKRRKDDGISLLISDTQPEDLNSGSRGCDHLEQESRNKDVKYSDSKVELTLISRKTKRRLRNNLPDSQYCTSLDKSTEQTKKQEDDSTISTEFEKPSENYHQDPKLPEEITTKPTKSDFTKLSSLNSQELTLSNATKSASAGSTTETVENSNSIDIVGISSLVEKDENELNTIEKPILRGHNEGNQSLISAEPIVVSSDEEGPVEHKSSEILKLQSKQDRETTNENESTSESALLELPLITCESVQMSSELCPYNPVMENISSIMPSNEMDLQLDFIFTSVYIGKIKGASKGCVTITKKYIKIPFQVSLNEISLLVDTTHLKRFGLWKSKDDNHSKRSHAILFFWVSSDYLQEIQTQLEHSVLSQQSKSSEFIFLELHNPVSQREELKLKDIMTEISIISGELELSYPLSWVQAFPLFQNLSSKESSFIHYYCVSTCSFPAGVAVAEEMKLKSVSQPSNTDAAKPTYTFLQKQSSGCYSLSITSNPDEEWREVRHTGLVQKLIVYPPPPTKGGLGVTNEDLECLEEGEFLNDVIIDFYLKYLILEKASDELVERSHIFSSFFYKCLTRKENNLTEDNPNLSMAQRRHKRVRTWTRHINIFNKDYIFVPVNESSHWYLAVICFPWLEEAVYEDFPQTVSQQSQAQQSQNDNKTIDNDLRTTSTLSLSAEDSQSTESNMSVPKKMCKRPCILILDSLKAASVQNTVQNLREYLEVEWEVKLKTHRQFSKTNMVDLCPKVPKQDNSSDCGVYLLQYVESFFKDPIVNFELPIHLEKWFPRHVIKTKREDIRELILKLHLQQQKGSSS
Kind of experiment: SENP7 protease inhibitors, SAR follow-up, biochemical, luminescence (AID 504497). In kind it is functional.

In experiment [12] the target is T7, Sentrin-specific protease 6 (Homo sapiens, UniProt Q9GZR1).
T7 sequence (Q9GZR1 whole entry): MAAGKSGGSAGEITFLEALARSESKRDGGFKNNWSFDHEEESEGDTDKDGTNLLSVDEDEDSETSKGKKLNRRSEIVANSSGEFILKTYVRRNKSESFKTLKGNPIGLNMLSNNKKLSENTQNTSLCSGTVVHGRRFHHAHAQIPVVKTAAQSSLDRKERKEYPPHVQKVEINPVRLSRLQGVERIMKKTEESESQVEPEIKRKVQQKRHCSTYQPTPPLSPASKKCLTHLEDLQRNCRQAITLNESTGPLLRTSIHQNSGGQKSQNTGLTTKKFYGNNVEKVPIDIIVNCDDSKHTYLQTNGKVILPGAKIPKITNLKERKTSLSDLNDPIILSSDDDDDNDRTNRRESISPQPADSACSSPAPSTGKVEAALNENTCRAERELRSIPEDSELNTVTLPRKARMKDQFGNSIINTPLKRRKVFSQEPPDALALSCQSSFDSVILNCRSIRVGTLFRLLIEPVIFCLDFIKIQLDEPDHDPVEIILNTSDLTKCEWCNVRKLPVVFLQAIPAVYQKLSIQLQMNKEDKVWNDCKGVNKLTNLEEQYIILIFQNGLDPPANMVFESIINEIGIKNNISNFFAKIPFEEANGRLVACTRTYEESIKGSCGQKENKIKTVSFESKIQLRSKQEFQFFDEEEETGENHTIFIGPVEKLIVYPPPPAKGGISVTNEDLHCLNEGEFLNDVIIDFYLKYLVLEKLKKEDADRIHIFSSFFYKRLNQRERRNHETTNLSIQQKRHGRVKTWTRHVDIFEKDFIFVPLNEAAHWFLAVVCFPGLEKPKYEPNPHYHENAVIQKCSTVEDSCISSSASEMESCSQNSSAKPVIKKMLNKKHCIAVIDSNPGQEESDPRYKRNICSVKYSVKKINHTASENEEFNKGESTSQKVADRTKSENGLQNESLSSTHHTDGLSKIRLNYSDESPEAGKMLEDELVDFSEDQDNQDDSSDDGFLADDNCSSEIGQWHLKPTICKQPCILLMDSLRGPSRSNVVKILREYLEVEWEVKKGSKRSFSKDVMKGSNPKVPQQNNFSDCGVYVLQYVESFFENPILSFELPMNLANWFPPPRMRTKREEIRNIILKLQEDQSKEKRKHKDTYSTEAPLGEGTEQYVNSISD
Kind of experiment: SAR Analysis of small molecule inhibitors of Sentrin-specific protease 6 (SENP6) using a Luminescent assay. [Related pubchem assays (depositor defined):AID2582, AID2599]. In kind it is functional.

The nature of experiment [13]: ARNT/TACC3 interaction disruptors, potency, confirmation, biochemical, AlphaScreen, cherry-picked samples (AID 651703).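 Also: His-tagged ARNT PAS-B domain paired with GST-TACC3 E629A dimer coactivator fragment; potency of inhibitors that break up the complex and lower AlphaScreen signal.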 In kind it is functional, Homo sapiens.

Sequence of Phospholipase A2 (P04054 whole entry): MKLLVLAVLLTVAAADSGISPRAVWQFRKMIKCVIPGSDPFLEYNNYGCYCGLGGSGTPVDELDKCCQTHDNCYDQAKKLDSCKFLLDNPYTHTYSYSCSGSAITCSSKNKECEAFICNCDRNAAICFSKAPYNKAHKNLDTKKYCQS
Sequence of Beta-galactosidase (Q8VNN2 whole entry): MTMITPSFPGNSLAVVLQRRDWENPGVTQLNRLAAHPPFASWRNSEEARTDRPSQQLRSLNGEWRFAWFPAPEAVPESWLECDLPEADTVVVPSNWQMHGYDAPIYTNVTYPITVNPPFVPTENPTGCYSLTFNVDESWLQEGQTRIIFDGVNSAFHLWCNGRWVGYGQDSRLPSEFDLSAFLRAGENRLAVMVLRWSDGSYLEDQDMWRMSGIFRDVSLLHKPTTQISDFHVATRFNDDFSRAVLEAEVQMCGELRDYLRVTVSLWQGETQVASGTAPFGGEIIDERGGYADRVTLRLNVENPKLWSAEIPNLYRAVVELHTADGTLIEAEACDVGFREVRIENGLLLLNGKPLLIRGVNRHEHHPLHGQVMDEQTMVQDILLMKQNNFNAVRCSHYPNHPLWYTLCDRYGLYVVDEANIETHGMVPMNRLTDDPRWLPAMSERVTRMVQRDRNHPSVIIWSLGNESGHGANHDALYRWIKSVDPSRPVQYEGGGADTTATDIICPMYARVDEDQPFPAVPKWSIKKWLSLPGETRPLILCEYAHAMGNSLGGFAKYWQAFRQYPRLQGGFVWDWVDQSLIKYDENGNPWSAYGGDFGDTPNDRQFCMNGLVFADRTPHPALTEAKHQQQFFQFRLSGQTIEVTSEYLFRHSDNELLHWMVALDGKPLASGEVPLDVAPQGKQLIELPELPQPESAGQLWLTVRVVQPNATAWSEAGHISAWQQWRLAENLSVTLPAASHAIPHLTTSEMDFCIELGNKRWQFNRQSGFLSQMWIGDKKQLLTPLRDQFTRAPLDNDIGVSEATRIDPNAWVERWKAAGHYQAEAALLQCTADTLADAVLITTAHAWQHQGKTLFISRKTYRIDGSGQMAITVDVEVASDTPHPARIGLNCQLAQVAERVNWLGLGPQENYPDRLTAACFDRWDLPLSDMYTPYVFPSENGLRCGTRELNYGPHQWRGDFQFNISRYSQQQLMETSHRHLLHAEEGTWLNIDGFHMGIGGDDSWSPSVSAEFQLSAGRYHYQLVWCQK
Sequence of Cysteine protease ATG4B (Q9Y4P1 whole entry): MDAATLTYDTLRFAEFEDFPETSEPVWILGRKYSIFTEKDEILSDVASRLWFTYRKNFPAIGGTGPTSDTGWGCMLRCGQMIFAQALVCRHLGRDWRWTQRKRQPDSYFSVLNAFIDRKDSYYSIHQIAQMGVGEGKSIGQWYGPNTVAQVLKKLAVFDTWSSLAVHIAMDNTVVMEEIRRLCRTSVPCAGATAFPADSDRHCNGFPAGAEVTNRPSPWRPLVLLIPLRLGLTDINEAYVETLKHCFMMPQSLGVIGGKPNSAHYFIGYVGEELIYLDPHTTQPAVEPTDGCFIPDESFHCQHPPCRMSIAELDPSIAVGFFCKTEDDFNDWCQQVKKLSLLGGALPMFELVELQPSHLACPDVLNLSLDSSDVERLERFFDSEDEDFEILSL
Sequence of Genome polyprotein (P29990 2492-3391 limits assumed): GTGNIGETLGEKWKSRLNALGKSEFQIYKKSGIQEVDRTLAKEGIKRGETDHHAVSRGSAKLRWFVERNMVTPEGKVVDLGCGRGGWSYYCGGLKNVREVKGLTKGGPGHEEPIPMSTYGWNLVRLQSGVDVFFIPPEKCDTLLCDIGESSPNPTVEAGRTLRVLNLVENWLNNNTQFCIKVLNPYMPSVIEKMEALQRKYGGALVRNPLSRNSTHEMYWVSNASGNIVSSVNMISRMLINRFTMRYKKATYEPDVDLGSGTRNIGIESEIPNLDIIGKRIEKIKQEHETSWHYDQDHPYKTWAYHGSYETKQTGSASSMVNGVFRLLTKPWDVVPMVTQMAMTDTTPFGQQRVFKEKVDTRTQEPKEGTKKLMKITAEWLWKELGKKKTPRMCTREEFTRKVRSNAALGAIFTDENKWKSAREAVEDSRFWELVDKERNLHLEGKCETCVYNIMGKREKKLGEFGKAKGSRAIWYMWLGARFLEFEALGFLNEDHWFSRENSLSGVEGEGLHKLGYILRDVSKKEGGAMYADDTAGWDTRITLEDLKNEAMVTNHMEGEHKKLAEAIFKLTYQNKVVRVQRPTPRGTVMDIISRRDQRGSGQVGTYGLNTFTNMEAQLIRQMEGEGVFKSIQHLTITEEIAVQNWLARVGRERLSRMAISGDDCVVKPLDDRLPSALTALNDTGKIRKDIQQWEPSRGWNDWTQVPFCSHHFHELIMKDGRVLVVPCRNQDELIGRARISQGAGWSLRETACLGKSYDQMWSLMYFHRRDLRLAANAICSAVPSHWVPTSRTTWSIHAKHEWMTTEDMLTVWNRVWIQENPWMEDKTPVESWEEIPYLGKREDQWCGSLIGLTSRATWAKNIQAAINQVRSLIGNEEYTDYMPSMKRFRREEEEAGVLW

For `CC(=O)c1csc(COc2ccc(Cl)cc2)n1`, the IC50 in [1] and in experiment [2] was > 67.6 µM (inactive) throughout.

Regarding `O=C(CNC(=O)c1ccc(Br)o1)OCC(=O)c1cccc([N+](=O)[O-])c1`, in experiment [3], the EC50 is > 40 µM (inactive). In addition, the half-maximal inhibitory concentration (IC50) in experiment [4] is 27.3 µM (not active).

Turning to `Cc1ccc(/C=C2\SC(=S)N(C(Cc3ccccc3)C(=O)O)C2=O)cc1` (stereo not drawn), the results for the IC50 in experiment [5], in [6] and in [8] were 39.1 µM (active), 9.14 µM (active) and 10.6 µM (active), respectively. The half-maximal effective concentration (EC50) in experiment [7] is 5.96 µM (active).

For the molecule `O=C(O)Cc1nn(Cc2ccc(Cl)cc2)c(=O)c2ccccc12`, the IC50 in experiment [1] and in experiment [2] was > 67.5 µM (inactive) throughout.

With `Cc1nn(CC(=O)Nc2sc3c(c2C#N)CCCC3)c(C)c1I`, the IC50 in experiment [9], in [10], in [11] and in experiment [12] was > 99 µM (inactive) each time.

Turning to `CN(C)CCN(C(=O)c1ccc(S(=O)(=O)N2CCCCCC2)cc1)c1nc2cc3c(cc2s1)OCCO3`, the IC50 in [9], in experiment [10], in experiment [11] and in [12] was > 99 µM (inactive) each time.

`CCCCCCOc1ccc(N2C(=O)CC(SC(=N)N/N=C(\C)c3cccs3)C2=O)cc1` (stereo not drawn): the half-maximal inhibitory concentration (IC50) in experiment [6] was 9.46 µM (active); in experiment [8] it was 5.58 µM (active).

In the case of `Cc1ccc(/C=N/NC(=S)N2CCOCC2)cc1`, the EC50 in experiment [3] is > 40 µM (inactive). Also, in [13], the AC50 is 112 µM (active). Moreover, in [4], the IC50 was 8.6 µM (active).
